Values of other authors in PubChem BioAssay AID1259409 (Chemical Carcinogenesis Research Information System (CCRIS), 2018).
“And” between values parts separate entries of the source, which are not always exact repeats. Equal entries are not always repeated.

Tested on: rodent chemically induced tumor inhibition, incidence and multiplicity
Experiment: CCRIS tumor inhibitor studies

## CN(C)C(=O)Oc1cccc([N+](C)(C)C)c1
Carcinogen: AZOXYMETHANE, 25843-45-2, Dose [Inhibitor]: 0.1 MG/KG BW 1/2D IN DEPOT FORM BEGINNING 3 WK PRIOR TO FIRST CARCINOGEN DOSE (STUDY DURATION: 40 WK), Route [Inhibitor]: SUBCUTANEOUS, Species: RAT, Strain/Sex: WISTAR/MALE, Target Tissue: Type of Lesion: COLON: TUMOR, Dose [Carcinogen]: 7.4 MG/KG BW IN 0.9% SALINE SOLUTION 1/WK FOR 10 WK, Promoter: NONE USED
  tumour outcome (control, treated, inhibition, significance): 18/20 (90%), 9/19 (47%), 47%, p<0.02
Carcinogen: N-METHYL-N'-NITRO-N-NITROSOGUANIDINE, 70-25-7, Dose [Inhibitor]: 0, 0.075 MG/KG 1/2 D BEGINNING POST CARCINOGEN TREATMENT (STUDY DURATION: 52 WK), Route [Inhibitor]: SUBCUTANEOUS, Species: RAT, Strain/Sex: WISTAR/MALE, Target Tissue: Type of Lesion: STOMACH: ADENOCARCINOMA, Dose [Carcinogen]: 75 UG/ML IN DRINKING WATER FOR 25 WK, Promoter: NONE USED
  tumour outcome (control, treated, inhibition, significance): 16/20 (80%), 7/18 (39%), 51%, p<0.05
Carcinogen: N-METHYL-N'-NITRO-N-NITROSOGUANIDINE, 70-25-7, Dose [Inhibitor]: 0, 0.1 MG/KG IN OLIVE OIL SUSPENSION 1/D BEGINNING 1 WK POST LAST CARCINOGEN DOSE AND CONTINUING FOR DURATION OF STUDY (, Species: RAT, Strain/Sex: WISTAR/MALE, Target Tissue: Type of Lesion: GLANDULAR STOMACH: ADENOCARCINOMA, Dose [Carcinogen]: 50 UG/ML IN DRINKING WATER FOR 25 WK, Promoter: NONE USED
  tumour outcome (control, treated, inhibition, significance): 15/18 (83%), 7/19 (37%), 55%, p<0.02

## CCCCCCCCCCCCCCCCCCOC1=C(O)C([C@@H](O)CO)OC1=O (stereo partly drawn)
Carcinogen: NONE USED, Dose [Inhibitor]: 0, 0.1% IN DIET FOR DURATION OF STUDY (STUDY DURATION: 16 MO), Route [Inhibitor]: ORAL, Species: MOUSE, Strain/Sex: C3H/HENCRJ/MALE, Target Tissue: Type of Lesion: LIVER: ADENOMA, Promoter: NONE USED
  tumour outcome (control, treated, inhibition, significance): 17/43 (40%), 20/39 (51%), -28%, not calculated
Carcinogen: NONE USED, Dose [Inhibitor]: 0, 0.1% IN DIET FOR DURATION OF STUDY (STUDY DURATION: 16 MO), Route [Inhibitor]: ORAL, Species: MOUSE, Strain/Sex: C3H/HENCRJ/MALE, Target Tissue: Type of Lesion: LIVER: CARCINOMA, Promoter: NONE USED
  tumour outcome (control, treated, inhibition, significance): 11/43 (26%), 2/39 (5%), 81%, p<0.05

## Oc1cc(O)c2c(c1)O[C@H](c1ccc(O)c(O)c1)[C@H](O)C2
Carcinogen: 3-METHYLCHOLANTHRENE, 56-49-5, Dose [Inhibitor]: 0, 2 MG IN 0.1 ML STERILE SALINE 1/D FOR 5 CONSECUTIVE D BEGINNING 30 D POST CARCINOGEN TREATMENT (STUDY DURATION: 20 WK, Route [Inhibitor]: GAVAGE, Species: MOUSE, Strain/Sex: SWISS/MALE, Target Tissue: Type of Lesion: INJECTION SITE: SARCOMA, Dose [Carcinogen]: 745 NMOL IN 0.1 ML DMSO 1/D FOR 2 CONSECUTIVE D, Promoter: NONE USED
  tumour outcome (control, treated, inhibition, significance): 100%, 33%, 67%, p<0.01
Carcinogen: 7,12-DIMETHYLBENZ[A]ANTHRACENE, 57-97-6, Dose [Inhibitor]: 0, 2 MG IN 0.1 ML DMSO 2/WK FOR 6 WK ADMINISTERED 30 MIN POST EACH PROMOTER DOSE (STUDY DURATION: 12 WK), Route [Inhibitor]: DERMAL, Species: MOUSE, Strain/Sex: SWISS/MALE, Target Tissue: Type of Lesion: SKIN: PAPILLOMA, Dose [Carcinogen]: 450 NMOL IN 0.1 ML DMSO ONCE, Promoter: CROTON OIL, 8001-28-3
  tumour outcome (control, treated, inhibition, significance): 17/30 (57%), 14/30 (47%), 18%, not significant

## Oc1c(F)c(F)cc(F)c1F
Carcinogen: BENZO[A]PYRENE, 50-32-8, Dose [Inhibitor]: 0.03 MMOL/G OF DIET DAILY STARTING 7 D BEFORE AND CONTINUING THROUGH 3 D AFTER CARCINOGEN TREATMENT FOLLOWED BY OBSERVAT, Route [Inhibitor]: ORAL, Species: MOUSE, Strain/Sex: ICR/FEMALE, Target Tissue: Type of Lesion: FORESTOMACH: NEOPLASM, Dose [Carcinogen]: 1 MG IN 0.2 ML CORN OIL 2/WK FOR 4 WK, Promoter: NONE USED
  tumour outcome (control, treated, inhibition, significance): 100%, 95%, 5%, not significant and 97%, 84%, 13%, not significant
